Key:
Type in all cases: biochemical
CDK7/CycH/Mat1 = biological target: T1, CDK7/CycH/Mat1 (Homo sapiens, UniProt P50613); assay: CDK7 Enzymatic Activity Assay (Lance Kinase Activity Assay, FRET); settings: Table 5A; 25 μM ATP final; read-out: CDK7: IC50 [mM] for CDK7 inhibition (the above defined ranges apply)
T1 construct: purchased Carna
Experimental: (§1) This protocol describes how the Lance Kinase Activity Assay was performed to determine IC50 values of compounds of general formula (I) against CDK/Cyclin complexes. The principle behind this enzymatic assay is based upon the phosphorylation of the Ulight-Peptide Substrat. It is detected by using a specific EU-labeled anti-phospho peptide antibody.
(§2) Binding of an inhibitor to the kinase prevents phosphorylation of the ULlight-MBP Substrat, resulting in a loss of FRET.
CDK7 Enzymatic Activity Assay
(§3) The compounds of general formula (I) exemplary summarized in Table 1 were diluted from a 10 mM DMSO stock solution 1:10 in a total volume of 15 μl DMSO. This compound predilution was then serial diluted 1:3 over 8 steps in DMSO and briefly spun down. Each compound solution was now diluted 1:20 in Enzymatic Buffer (HEPES: 50 mM, pH: 7.5; MgCl2: 10 mM; EGTA: 1 mM; DTT: 2 mM; Tween-20: 0.01%), mixed thoroughly and spun down.
(§4) For positive controls, 2 μl of DMSO working solution were mixed with 6 μl CDK7/CycH/Mat1/substrate working solution and 2 μl ATP working solution. Positive and negative controls were calculated from at least 8 different wells. The 384 well plates were mixed in a Teleshaker plate mixer (Beckman Coulter, Brea, Calif., USA) at 2000 rpm for 40 sec, and incubated for 1 h at room temperature before addition of 10 μl LANCE Detection Buffer (1×; EDTA: 20 nM; Eu-Anti-P-MBP: 4 nM) per well. Plates were mixed in a Teleshaker plate mixer (Beckman Coulter, Brea, Calif., USA) at 2000 rpm for 40 sec, followed by incubation with Detection Buffer for 1 h, and reading. […] IC50 values were determined from the sigmoidal dose response curves with the software Quattro Workflow (Quattro GmbH, Munich, Germany).

CDK9/Cyclin T1 = biological target: T2, CDK9/Cyclin T1 (Homo sapiens, UniProt P50750); assay: CDK9 Enzymatic Activity Assay (Lance Kinase Activity Assay, FRET); settings: Table 5B; symbols per IC50 ranges of b615
T2 construct: purchased Invitrogen
Experimental: as §1, §2
CDK9 Enzymatic Activity Assay
as §3
as §4, with “6 μl CDK9/cyclin T1/substrate working solution” for “6 μl CDK7/CycH/Mat1/substrate working solution”, “rpm for […], followed” for “rpm for 40 sec, followed”

CDK2/CycA = biological target: T3, CDK2/CycA (Homo sapiens, UniProt P24941); assay: CDK2 Enzymatic Activity Assay (Lance Kinase Activity Assay, FRET); settings: Table 5B; symbols per IC50 ranges of b615
T3 construct: purchased Proqinase
Experimental: as §1, §2
CDK2 Enzymatic Activity Assay
as §3
as §4, with “6 μl CDK2/CycA/substrate working solution” for “6 μl CDK7/CycH/Mat1/substrate working solution”, “Detection Buffer (EDTA: […];” for “Detection Buffer (1×; EDTA: 20 nM;”, “rpm for […], followed” for “rpm for 40 sec, followed”

T2 sequence (P50750 whole entry): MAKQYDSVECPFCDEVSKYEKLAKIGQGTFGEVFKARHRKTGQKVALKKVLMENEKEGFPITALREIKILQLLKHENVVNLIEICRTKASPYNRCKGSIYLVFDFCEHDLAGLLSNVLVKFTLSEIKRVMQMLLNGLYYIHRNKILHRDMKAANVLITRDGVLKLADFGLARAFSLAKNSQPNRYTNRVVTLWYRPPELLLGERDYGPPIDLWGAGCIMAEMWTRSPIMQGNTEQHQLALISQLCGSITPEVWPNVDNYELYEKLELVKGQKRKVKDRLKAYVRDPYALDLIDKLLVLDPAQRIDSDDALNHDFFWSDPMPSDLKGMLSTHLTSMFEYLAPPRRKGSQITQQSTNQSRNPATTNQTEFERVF
T2 sequence (O60563 whole entry partner): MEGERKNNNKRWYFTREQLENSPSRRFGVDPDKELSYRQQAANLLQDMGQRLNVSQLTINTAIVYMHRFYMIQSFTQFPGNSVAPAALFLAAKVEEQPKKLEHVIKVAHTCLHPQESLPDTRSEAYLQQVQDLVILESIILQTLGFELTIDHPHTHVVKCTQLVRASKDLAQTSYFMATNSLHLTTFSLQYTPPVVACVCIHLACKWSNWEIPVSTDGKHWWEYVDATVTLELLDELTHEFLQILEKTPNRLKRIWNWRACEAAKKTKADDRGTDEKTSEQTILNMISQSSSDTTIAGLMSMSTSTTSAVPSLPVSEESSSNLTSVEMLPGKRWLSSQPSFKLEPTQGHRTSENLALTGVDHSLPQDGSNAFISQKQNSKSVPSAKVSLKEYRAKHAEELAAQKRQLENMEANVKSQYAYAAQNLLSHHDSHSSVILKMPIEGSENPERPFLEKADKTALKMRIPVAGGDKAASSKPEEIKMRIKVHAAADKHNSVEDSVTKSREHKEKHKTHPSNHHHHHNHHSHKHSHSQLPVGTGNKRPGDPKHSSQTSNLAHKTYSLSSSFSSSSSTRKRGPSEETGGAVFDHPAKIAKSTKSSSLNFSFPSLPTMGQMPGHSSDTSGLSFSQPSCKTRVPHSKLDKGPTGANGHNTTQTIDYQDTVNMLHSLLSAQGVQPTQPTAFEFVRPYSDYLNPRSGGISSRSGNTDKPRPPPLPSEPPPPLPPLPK
T1 sequence (P50613 whole entry): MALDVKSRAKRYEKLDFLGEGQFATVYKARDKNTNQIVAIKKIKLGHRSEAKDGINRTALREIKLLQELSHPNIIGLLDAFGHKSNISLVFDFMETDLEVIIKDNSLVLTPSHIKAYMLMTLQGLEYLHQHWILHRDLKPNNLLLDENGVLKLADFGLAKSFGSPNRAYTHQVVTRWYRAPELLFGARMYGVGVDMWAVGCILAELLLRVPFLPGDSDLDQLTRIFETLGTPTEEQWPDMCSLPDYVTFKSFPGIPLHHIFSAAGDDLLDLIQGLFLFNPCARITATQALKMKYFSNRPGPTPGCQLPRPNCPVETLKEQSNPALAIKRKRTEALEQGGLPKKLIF
T1 sequence (P51946 whole entry partner): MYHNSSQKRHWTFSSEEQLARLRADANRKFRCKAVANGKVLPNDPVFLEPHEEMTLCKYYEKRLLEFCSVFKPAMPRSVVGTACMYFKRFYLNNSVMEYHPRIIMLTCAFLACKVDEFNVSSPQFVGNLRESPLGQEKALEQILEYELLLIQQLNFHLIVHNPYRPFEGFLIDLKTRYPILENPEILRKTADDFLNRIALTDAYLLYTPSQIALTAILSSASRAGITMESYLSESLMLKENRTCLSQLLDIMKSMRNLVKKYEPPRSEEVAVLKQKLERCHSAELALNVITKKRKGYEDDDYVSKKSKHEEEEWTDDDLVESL
T1 sequence (P51948 whole entry partner): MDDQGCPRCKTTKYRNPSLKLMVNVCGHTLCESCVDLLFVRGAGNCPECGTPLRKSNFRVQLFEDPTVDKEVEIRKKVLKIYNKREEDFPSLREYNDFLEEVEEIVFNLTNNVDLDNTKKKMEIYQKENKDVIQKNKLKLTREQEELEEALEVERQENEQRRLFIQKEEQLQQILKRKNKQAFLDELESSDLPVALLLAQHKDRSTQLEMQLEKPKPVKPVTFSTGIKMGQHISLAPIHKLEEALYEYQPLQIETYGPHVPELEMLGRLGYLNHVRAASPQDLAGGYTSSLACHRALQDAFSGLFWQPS

Compound | IC50 (CDK7/CycH/Mat1) | CDK9: Selectivity of CDK7 inhibition over CDK9 inhibition [fold] (CDK9/Cyclin T1) | CDK2 IC50 range class (CDK2/CycA)
COc1cccc([C@H](C)Nc2nc(CN3CCNCC3)nc3c(C(C)C)cnn23)c1 [(XXIX-1), (S)-8-isopropyl-N-(1-(3-methoxyphenyl)ethyl)-2-(piperazin-1-ylmethyl)pyrazolo[1,5-a][1,3,5]triazin-4-amine] | > 100 nM | +++ (IC50>2500 nM) | +++ (IC50>2500 nM)
COc1cccc([C@H](C)Nc2nc(C(=O)NCCCN)nc3c(C(C)C)cnn23)c1 [(XXVI-5), (S)-N-(3-aminopropyl)-8-isopropyl-4-((1-(3-methoxyphenyl)ethyl)amino)pyrazolo[1,5-a][1,3,5]triazine-2-carboxamide] | > 100 nM | +++ (IC50>2500 nM) | +++ (IC50>2500 nM)
COc1ccc([C@H](C)Nc2nc(OC3CCN(C)CC3)nc3c(C(C)C)cnn23)cc1 [(VII-aa), (S)-8-isopropyl-N-(1-(4-methoxyphenyl)ethyl)-2-((1-methylpiperidin-4-yl)oxy)pyrazolo[1,5-a][1,3,5]triazin-4-amine] | > 100 nM | +++ (IC50>2500 nM) | +++ (IC50>2500 nM)
COc1cccc([C@H](C)Nc2nc(O[C@@H]3CCCNC3)nc3c(C(C)C)cnn23)c1 [(VII-r), 8-isopropyl-N-((S)-1-(3-methoxyphenyl)ethyl)-2-((R)-piperidin-3-yloxy)pyrazolo[1,5-a][1,3,5]triazin-4-amine] | < 10 nM | +++ (IC50>2500 nM) | +++ (IC50>2500 nM)
COc1cccc([C@H](C)Nc2nc(NCCCN3CCOCC3)nc3c(C(C)C)cnn23)c1 [(VIII-j), (S)-8-isopropyl-N4-(1-(3-methoxyphenyl)ethyl)-N2-(3-morpholinopropyl)pyrazolo[1,5-a][1,3,5]triazine-2,4-diamine] | > 100 nM | +++ (IC50>2500 nM) | +++ (IC50>2500 nM)
CC(C)c1cnn2c(NC(C)c3cccc4c3cnn4C)nc(O[C@@H]3CCCNC3)nc12 (stereo partly drawn) [(VII-bh), 8-isopropyl-N-(1-(1-methyl-1H-indazol-4-yl)ethyl)-2-((R)-piperidin-3-yloxy)pyrazolo[1,5-a][1,3,5]triazin-4-amine] | < 10 nM | +++ (IC50>2500 nM) | +++ (IC50>2500 nM)
CC(C)c1cnn2c(N[C@@H](C)c3cccc(F)c3)nc(O[C@@H]3CCCNC3)nc12 [(VII-ak), N-((S)-1-(3-fluorophenyl)ethyl)-8-isopropyl-2-((R)-piperidin-3-yloxy)pyrazolo[1,5-a][1,3,5]triazin-4-amine] | 30 to 100 nM | +++ (IC50>2500 nM) | +++ (IC50>2500 nM)
COc1cccc([C@H](C)Nc2nc(N3CCC4(CCCN4)CC3)nc3c(C(C)C)cnn23)c1 [(VIII-ai), (S)-8-isopropyl-N-(1-(3-methoxyphenyl)ethyl)-2-(1,8-diazaspiro[4.5]decan-8-yl)pyrazolo[1,5-a][1,3,5]triazin-4-amine] | < 10 nM | +++ (IC50>2500 nM) | +++ (IC50>2500 nM)
CC(C)c1cnn2c(NC(C)c3ccccc3N3CCCCC3)nc(O[C@@H]3CCCNC3)nc12 (stereo partly drawn) [(VII-aq), 8-isopropyl-N-(1-(2-(piperidin-1-yl)phenyl)ethyl)-2-((R)-piperidin-3-yloxy)pyrazolo[1,5-a][1,3,5]triazin-4-amine] | > 100 nM | +++ (IC50>2500 nM) | +++ (IC50>2500 nM)
COc1cccc([C@H](C)Nc2nc(OCCN3CCNCC3)nc3c(C(C)C)cnn23)c1 [(VII-bn), (S)-8-isopropyl-N-(1-(3-methoxyphenyl)ethyl)-2-(2-(piperazin-1-yl)ethoxy)pyrazolo[1,5-a][1,3,5]triazin-4-amine] | > 100 nM | +++ (IC50>2500 nM) | +++ (IC50>2500 nM)
COc1cccc([C@H](C)Nc2nc(N3CCC(N)C3)nc3c(C(C)C)cnn23)c1 (stereo partly drawn) [(VIII-q), 2-(3-aminopyrrolidin-1-yl)-8-isopropyl-N-((S)-1-(3-methoxyphenyl)ethyl)pyrazolo[1,5-a][1,3,5]triazin-4-amine] | > 100 nM | +++ (IC50>2500 nM) | +++ (IC50>2500 nM)
CC(C)c1cnn2c(N[C@@H](C)c3ccccc3OC(F)(F)F)nc(O[C@@H]3CCCNC3)nc12 [(VII-at), 8-isopropyl-2-((R)-piperidin-3-yloxy)-N-((S)-1-(2-(trifluoro-methoxy)phenyl)ethyl)pyrazolo[1,5-a][1,3,5]triazin-4-amine] | 30 to 100 nM | +++ (IC50>2500 nM) | +++ (IC50>2500 nM)
Cc1ccccc1[C@H](C)Nc1nc(O[C@@H]2CCCNC2)nc2c(C(C)C)cnn12 [(VII-af), 8-isopropyl-2-((R)-piperidin-3-yloxy)-N-((S)-1-(o-tolyl)ethyl)pyrazolo[1,5-a][1,3,5]triazin-4-amine] | 10 to 30 nM | +++ (IC50>2500 nM) | +++ (IC50>2500 nM)
COc1cccc([C@H](C)Nc2nc(N[C@@H]3CCCNC3)nc3c(C(C)C)cnn23)c1 [(VIII-h), 8-isopropyl-N4-((S)-1-(3-methoxyphenyl)ethyl)-N2-((R)-piperidin-3-yl)pyrazolo[1,5-a][1,3,5]triazine-2,4-diamine] | 10 to 30 nM | +++ (IC50>2500 nM) | +++ (IC50>2500 nM)
COc1cccc([C@H](C)Nc2nc(C(=O)N(C)CCN3CCCC3)nc3c(C(C)C)cnn23)c1 [(XXVI-3), (S)-8-isopropyl-4-((1-(3-methoxyphenyl)ethyl)amino)-N-methyl-N-(2-(pyrrolidin-1-yl)ethyl)pyrazolo[1,5-a][1,3,5]triazine-2-carboxamide] | > 100 nM | +++ (IC50>2500 nM) | +++ (IC50>2500 nM)
COc1cccc([C@H](C)Nc2nc(OC3CNC3)nc3c(C(C)C)cnn23)c1 [(VII-bv), (S)-2-(azetidin-S-yloxy)-8-isopropyl-N-(1-(3-methoxyphenyl)ethyl)pyrazolo[1,5-a][1,3,5]triazin-4-amine] | < 10 nM | +++ (IC50>2500 nM) | +++ (IC50>2500 nM)
COc1cccc([C@H](C)Nc2nc(CN3CC(N4CCC(F)(F)C4)C3)nc3c(C(C)C)cnn23)c1 [(XXIX-9), (S)-2-((3-(3,3-difluoropyrrolidin-1-yl)azetidin-1-yl)methyl)-8-isopropyl-N-(1-(3-methoxyphenyl)ethyl)pyrazolo[1,5-a][1,3,5]triazin-4-amine] | > 100 nM | +++ (IC50>2500 nM) | +++ (IC50>2500 nM)
COc1cccc([C@H](C)Nc2nc(C(=O)N3CC4(CNC4)C3)nc3c(C(C)C)cnn23)c1 [(XXVI-1), (S)-(8-isopropyl-4-((1-(3-methoxyphenyl)ethyl)amino)pyrazolo[1,5-a][1,3,5]triazin-2-yl)(2,6-diazaspiro[3.3]heptan-2-yl)methanone] | > 100 nM | +++ (IC50>2500 nM) | +++ (IC50>2500 nM)

Reference: patent US9096608B2, “Pharmaceutically active pyrazolo-triazine derivatives” (LEAD DISCOVERY CENTER GMBH, priority 2012, dated 2015)
